Values quoted from earlier work as cited in patent US20210338693A1, “Gel Compositions for Transdermal Delivery to Maximize Drug Concentrations in the Stratum Corneum and Serum and Methods of Use Thereof” (Viramal Limited, priority 2016, published 2021).

Conditions: in vivo

With `C[C@]12CC[C@H]3[C@@H](CCC4=CC(=O)CC[C@@]43C)[C@@H]1CC[C@@H]2O` [Testosterone] as the molecule, how does the half-life read?
Its half-life is 1.4 h.
